From patent US6723525B2, “Methods and compositions for screening modulators of lipid kinases” (Warner-Lambert Company, priority 2000, dated 2004)

Key:
[1] = target: T1, human sphingosine kinase (huSPHK1) (Homo sapiens, UniProt Q9NYA1); test: Sphingosine kinase activity scintillation proximity assay (SPA) with extracts of transfected CHO or COS-7 cells; format: biochemical; settings: FIG. 4B; read-out: ATP KM
T1 construct: made in house; host or cells: CHO and/or COS-7 cells, transiently transfected; raw cell extract after thaw/freeze cycles
Procedure: CHO and/or COS-7 cells were cultured in 90% Ham F12 medium, 10% foetal bovine serum, Gentamycin, in T-175 tissue culture flasks in air with 5% CO2 atmosphere at 37° C. CHO and/or COS-7 cells were transiently transfected with the vector pcDNA3 alone or vector containing the human sphingosine kinase cDNA, using the Qiagen reagent Superfect. They were seeded 5×10^6 per 175 cm^2 flask. After 24 hrs, cells were transfected with 10 μg of cDNA mixed with 20 μl Superfect for 6 hrs, washed, and cultured for 2 days in complete Ham medium. They were then trypsinized, centrifuged down at 1500 rpm for 10 min, and resuspended in assay buffer. They underwent 3 thaw/freeze cycles and protein concentration were estimated using the Bradfaord technique (Biorad kit). The protein concentration was adjusted to 1 μg/μl, and aliquots were kept frozen at −20° C. […]
100 μL/well of SPA beads emulsion (corresponding to 0.5 mg/well beads). The plate is covered with a transparent Topseal (Packard), stirred for 1 hour at 800 rpm and counted on a Wallac Trilux. […]
Taking advantage of the property of these supports, a two-steps assay was set up (see FIG. 1). […] The beads settle down for an hour, and the plate is read on a scintillation counter.
Optimization of assay conditions need also the determination of adequate quantities of ATP, sphingosine, and enzyme concentration. […]

[2] = target: sphingosine kinases (SPHKs) (Homo sapiens, UniProt Q9NYA1); settings: cited from earlier work
sphingosine kinases (SPHKs), sequence (Q9NYA1 whole entry): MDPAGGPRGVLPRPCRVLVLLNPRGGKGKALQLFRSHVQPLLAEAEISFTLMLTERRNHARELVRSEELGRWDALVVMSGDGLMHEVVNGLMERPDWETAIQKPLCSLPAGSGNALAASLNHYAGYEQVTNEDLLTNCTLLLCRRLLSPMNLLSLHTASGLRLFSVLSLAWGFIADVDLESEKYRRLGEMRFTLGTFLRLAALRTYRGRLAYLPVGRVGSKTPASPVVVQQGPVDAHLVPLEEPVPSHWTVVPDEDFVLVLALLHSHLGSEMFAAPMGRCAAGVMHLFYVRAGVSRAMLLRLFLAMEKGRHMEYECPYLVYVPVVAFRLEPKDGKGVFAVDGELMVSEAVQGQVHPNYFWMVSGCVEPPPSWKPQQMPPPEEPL

T1 sequence (Q9NYA1 whole entry): as above

Compound	Km [1] [µM]	Km [2] [µM]
Nc1ncnc2c1ncn2[C@@H]1O[C@H](COP(=O)(O)OP(=O)(O)OP(=O)(O)O)[C@@H](O)[C@H]1O [ATP]	~30	–
CCCCCCCCCCCCC/C=C/[C@@H](O)[C@@H](N)CO [Sphingosine]	–	5
